Source: PubChem BioAssay (NCI)
Several values for one entry are separate records, joined by “and”; a condition that tells them apart may be missing. Equal entries are not always repeated.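 The compound was tested at five concentrations on cells cultured in 96-well plates, with a 48-hour exposure period. Here, GI50 denotes the concentration required for 50% inhibition of growth. TGI marks complete inhibition of growth.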

Tests used:
Assay in all cases: NCI anticancer screen, dose series, 48 h
HCT-116 colon = tested on: HCT-116 colon
DU-145 prostate = tested on: DU-145 prostate
MDA-MB-231 breast = tested on: MDA-MB-231 breast
COLO 205 colon = tested on: COLO 205 colon
HCT-15 colon = tested on: HCT-15 colon
OVCAR-3 ovarian = tested on: OVCAR-3 ovarian
SN12C renal = tested on: SN12C renal
SK-MEL-5 melanoma = tested on: SK-MEL-5 melanoma
MDA-N = tested on: MDA-N
MALME-3M melanoma = tested on: MALME-3M melanoma
MDA-MB-435 = tested on: MDA-MB-435
K-562 leukemia = tested on: K-562 leukemia
ACHN renal = tested on: ACHN renal
HT29 colon = tested on: HT29 colon
CAKI-1 renal = tested on: CAKI-1 renal
KM20L2 colon = tested on: KM20L2 colon
SK-MEL-2 melanoma = tested on: SK-MEL-2 melanoma
RPMI-8226 leukemia = tested on: RPMI-8226 leukemia
U251 CNS = tested on: U251 CNS
SK-OV-3 ovarian = tested on: SK-OV-3 ovarian
UACC-62 melanoma = tested on: UACC-62 melanoma
HOP-62 NSCLC = tested on: HOP-62 NSCLC
M14 melanoma = tested on: M14 melanoma
PC-3 prostate = tested on: PC-3 prostate
CCRF-CEM leukemia = tested on: CCRF-CEM leukemia
SF-539 CNS = tested on: SF-539 CNS
M19-MEL melanoma = tested on: M19-MEL melanoma
IGROV1 ovarian = tested on: IGROV1 ovarian
OVCAR-5 ovarian = tested on: OVCAR-5 ovarian
XF 498 CNS = tested on: XF 498 CNS
RXF-631 renal = tested on: RXF-631 renal
HS 578T breast = tested on: HS 578T breast
A498 renal = tested on: A498 renal
SR leukemia = tested on: SR leukemia
NCI-H522 lung = tested on: NCI-H522 lung
A549 NSCLC = tested on: A549 NSCLC
SF-268 CNS = tested on: SF-268 CNS
KM12 colon = tested on: KM12 colon
DLD-1 colon = tested on: DLD-1 colon
LXFL 529 NSCLC = tested on: LXFL 529 NSCLC
SF-295 CNS = tested on: SF-295 CNS
UO-31 renal = tested on: UO-31 renal
SNB-78 CNS = tested on: SNB-78 CNS
HCC-2998 colon = tested on: HCC-2998 colon
HOP-92 NSCLC = tested on: HOP-92 NSCLC
HOP-18 NSCLC = tested on: HOP-18 NSCLC
TK-10 renal = tested on: TK-10 renal
OVCAR-8 ovarian = tested on: OVCAR-8 ovarian
T-47D breast = tested on: T-47D breast
DMS 273 small cell lung = tested on: DMS 273 small cell lung
HL-60(TB) leukemia = tested on: HL-60(TB) leukemia
MCF7 breast = tested on: MCF7 breast
LOX IMVI melanoma = tested on: LOX IMVI melanoma
MOLT-4 leukemia = tested on: MOLT-4 leukemia
NCI-H460 lung = tested on: NCI-H460 lung
SNB-75 CNS = tested on: SNB-75 CNS
NCI-H23 lung = tested on: NCI-H23 lung
SK-MEL-28 melanoma = tested on: SK-MEL-28 melanoma
SNB-19 CNS = tested on: SNB-19 CNS
OVCAR-4 ovarian = tested on: OVCAR-4 ovarian
RXF 393 renal = tested on: RXF 393 renal
SW-620 colon = tested on: SW-620 colon
786-0 renal = tested on: 786-0 renal
UACC-257 melanoma = tested on: UACC-257 melanoma
EKVX NSCLC = tested on: EKVX NSCLC
DMS 114 small cell lung = tested on: DMS 114 small cell lung
NCI-H226 lung = tested on: NCI-H226 lung

SMILES: Cc1ccc2oc(=O)c3c(O)c4cccc(OC5OC(C)C6O[C@@H](c7ccccc7)OC6C5OC5OC(C)C(O)C(O)C5O)c4c4oc(=O)c1c2c34 (some centres undefined)
- GI50 (HCT-116 colon): 25.7 nM
- TGI (DU-145 prostate): 1270 nM
- TGI (MDA-MB-231 breast): 1350 nM
- GI50 (COLO 205 colon): 80.7 nM
- GI50 (HCT-15 colon): 261 nM
- TGI (HCT-15 colon): 1500 nM and 5010 nM
- TGI (OVCAR-3 ovarian): 3960 nM
- GI50 (SN12C renal): 251 nM
- TGI (SN12C renal): 1760 nM and 4730 nM
- GI50 (SK-MEL-5 melanoma): 114 nM
- TGI (SK-MEL-5 melanoma): 1090 nM and 700 nM
- TGI (MDA-N): 1720 nM
- GI50 (MALME-3M melanoma): 126 nM
- TGI (MALME-3M melanoma): 1580 nM and 2520 nM
- TGI (MDA-MB-435): 1900 nM
- GI50 (K-562 leukemia): 70.8 nM
- TGI (K-562 leukemia): 2600 nM
- GI50 (ACHN renal): 55.9 nM
- TGI (ACHN renal): 1140 nM and 439 nM
- TGI (HT29 colon): 5120 nM
- GI50 (CAKI-1 renal): 41.5 nM
- TGI (KM20L2 colon): 4080 nM
- TGI (SK-MEL-2 melanoma): 1680 nM
- TGI (RPMI-8226 leukemia): 888 nM
- GI50 (U251 CNS): 82.5 nM
- TGI (U251 CNS): 1160 nM and 1580 nM
- GI50 (SK-OV-3 ovarian): 371 nM
- TGI (SK-OV-3 ovarian): 967 nM and 2410 nM
- TGI (UACC-62 melanoma): 444 nM and 432 nM
- GI50 (HOP-62 NSCLC): 105 nM
- TGI (HOP-62 NSCLC): 1600 nM and 734 nM
- GI50 (M14 melanoma): 409 nM
- TGI (M14 melanoma): 1850 nM and 1640 nM
- TGI (PC-3 prostate): 1400 nM
- TGI (CCRF-CEM leukemia): 365 nM and 363 nM
- TGI (SF-539 CNS): 1340 nM and 1390 nM
- TGI (M19-MEL melanoma): 3430 nM
- GI50 (IGROV1 ovarian): 31.5 nM
- TGI (IGROV1 ovarian): 1390 nM and 1320 nM
- GI50 (OVCAR-5 ovarian): 218 nM
- TGI (OVCAR-5 ovarian): 1130 nM and 2700 nM
- TGI (XF 498 CNS): 2050 nM
- TGI (RXF-631 renal): 4400 nM
- TGI (HS 578T breast): 1970 nM
- GI50 (A498 renal): 167 nM
- TGI (A498 renal): 1220 nM and 950 nM
- GI50 (SR leukemia): 17.4 nM
- TGI (SR leukemia): < 47.2 nM
- GI50 (NCI-H522 lung): 104 nM
- TGI (NCI-H522 lung): 294 nM and 1380 nM
- GI50 (A549 NSCLC): 21.4 nM
- TGI (A549 NSCLC): 521 nM and 924 nM
- TGI (SF-268 CNS): 1590 nM and 1710 nM
- GI50 (KM12 colon): 48.6 nM
- TGI (KM12 colon): 1430 nM and 1920 nM
- TGI (DLD-1 colon): 6080 nM
- TGI (LXFL 529 NSCLC): 6500 nM
- GI50 (SF-295 CNS): 44.9 nM
- TGI (SF-295 CNS): 523 nM and 1560 nM
- GI50 (UO-31 renal): 400 nM
- TGI (UO-31 renal): 1990 nM and 7470 nM
- TGI (SNB-78 CNS): 5230 nM
- GI50 (HCC-2998 colon): 74.7 nM
- TGI (HCC-2998 colon): 1720 nM
- GI50 (HOP-92 NSCLC): 333 nM
- TGI (HOP-92 NSCLC): 2220 nM and 2130 nM
- TGI (HOP-18 NSCLC): 19400 nM
- GI50 (TK-10 renal): 461 nM
- TGI (TK-10 renal): 3810 nM and 8950 nM
- GI50 (OVCAR-8 ovarian): 56.2 nM
- TGI (OVCAR-8 ovarian): 2740 nM and 1430 nM
- TGI (T-47D breast): 1230 nM
- TGI (DMS 273 small cell lung): 1090 nM
- GI50 (HL-60(TB) leukemia): 41.8 nM
- TGI (HL-60(TB) leukemia): 700 nM and 361 nM
- TGI (MCF7 breast): 2480 nM
- GI50 (LOX IMVI melanoma): 29.3 nM and 48.3 nM
- TGI (LOX IMVI melanoma): 538 nM and 1510 nM
- GI50 (MOLT-4 leukemia): 4.36 nM and 13.7 nM
- TGI (MOLT-4 leukemia): 109 nM and 161 nM
- GI50 (NCI-H460 lung): 4.67 nM
- TGI (NCI-H460 lung): 1030 nM and 545 nM
- TGI (SNB-75 CNS): 1540 nM
- GI50 (NCI-H23 lung): 30.7 nM
- TGI (NCI-H23 lung): 276 nM
- GI50 (SK-MEL-28 melanoma): 331 nM
- TGI (SK-MEL-28 melanoma): 1880 nM and 2010 nM
- GI50 (SNB-19 CNS): 26.6 nM
- TGI (OVCAR-4 ovarian): 3530 nM
- TGI (RXF 393 renal): 763 nM
- TGI (SW-620 colon): 2430 nM and 7530 nM
- GI50 (786-0 renal): 44.7 nM
- TGI (786-0 renal): 1090 nM and 1910 nM
- GI50 (UACC-257 melanoma): 309 nM
- TGI (UACC-257 melanoma): 1820 nM and 2120 nM
- GI50 (EKVX NSCLC): 519 nM
- TGI (EKVX NSCLC): 4090 nM and 2550 nM
- TGI (DMS 114 small cell lung): 3160 nM
- TGI (NCI-H226 lung): 211 nM
